The results in this text go back to patent publication US20250034136A1 (Nimbus Wadjet, Inc., priority 2023, published 2025).

A value given as a limit tells only on which side of the number the result lay.

WRN (BV08), human Werner helicase (Uniprot Q14191, amino acids 517-1235 with L1074F point mutation), sequence (Q14191 other isoform, or with tags, fused parts or gaps L1074F (already in the parent)): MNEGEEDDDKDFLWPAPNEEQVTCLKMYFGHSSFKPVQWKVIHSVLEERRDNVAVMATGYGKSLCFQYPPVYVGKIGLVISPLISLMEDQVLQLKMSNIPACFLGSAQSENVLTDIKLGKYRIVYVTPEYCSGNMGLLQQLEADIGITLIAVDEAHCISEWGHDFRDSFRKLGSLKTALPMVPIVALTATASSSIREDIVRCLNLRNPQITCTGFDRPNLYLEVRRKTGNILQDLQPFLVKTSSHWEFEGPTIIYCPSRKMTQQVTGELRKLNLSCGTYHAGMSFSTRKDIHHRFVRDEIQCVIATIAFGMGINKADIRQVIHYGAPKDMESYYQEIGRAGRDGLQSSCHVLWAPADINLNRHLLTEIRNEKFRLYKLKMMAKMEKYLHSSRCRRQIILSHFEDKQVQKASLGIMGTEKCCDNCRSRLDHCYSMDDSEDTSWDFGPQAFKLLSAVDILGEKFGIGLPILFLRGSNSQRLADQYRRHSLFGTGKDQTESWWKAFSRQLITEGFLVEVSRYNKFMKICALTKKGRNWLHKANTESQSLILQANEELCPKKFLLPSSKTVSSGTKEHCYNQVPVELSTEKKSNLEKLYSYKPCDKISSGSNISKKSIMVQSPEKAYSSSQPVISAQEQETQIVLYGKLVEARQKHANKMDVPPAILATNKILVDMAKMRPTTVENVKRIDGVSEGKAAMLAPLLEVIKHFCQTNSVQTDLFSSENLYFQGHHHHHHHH

One experiment has as its target WRN (BV08), human Werner helicase (Uniprot Q14191, amino acids 517-1235 with L1074F point mutation) (Homo sapiens (Human), UniProt Q14191, L1074F). Kind of experiment: WRN (BV08) ADP-Glo assay. The class given is biochemical. The settings on record: class symbols A-E, read-out: ADP-Glo_hWRN_IC50. As to the method:
Bovine skin gelatin (BSG), dimethyl sulfoxide (DMSO), Pluronic F-127 and tris(2-carboxyethyl)phosphine hydrochloride solution (TCEP) were purchased from Sigma-Aldrich (St. Louis, MO) at the highest level of purity possible. […] DNA strands were annealed by heating to 95° C. for 5 minutes followed by slow cooling to room temperature. Compounds in 100% DMSO (0.1 μl) were spotted into a 384-well white polystyrene Optiplate-384 (Perkin Elmer; Waltham, MA) assay plate using a LabCyte Echo 550 (Agilent; Santa Clara, CA). DMSO (0.1 μl) was added to columns 12, rows A-H and column 24, rows I-P for the maximum signal control. […] Compounds/DMSO were preincubated for 15 minutes at 25° C. with 5 μl 2×WRN (BV08), prepared as described below, in assay buffer containing 20 mM Bicine (pH=7.5), 1 mM MgCl2, 10 mM KCl, 0.1% Pluronic F-127, 0.005% BSG, 1 mM TCEP. The reaction was initiated by the addition of 5 μl 2× substrate mixture in assay buffer and incubated for 60 minutes at 25° C. The final concentrations of the assay components were 0.15 nM WRN, 5 μM ATP, and 0.1 nM DNA duplex. The final DMSO concentration was 1% and the reference compound concentration (NSC-617145) used for the minimal signal control was 20 μM. The reaction was stopped by the addition of the ADP-Glo Kit components (Promega; Madison, WI) as directed and the relative luminescence units (RLU) were read on an Envision 2104 (Perkin Elmer; Waltham, MA). % inhibition calculation:
[formula] • Where RLU=relative luminescence units, sample=signal in sample well, and MIN and MAX are the respective minimum and maximum signal controls.
[formula] • Where top and bottom are normally allowed to float but may be fixed at 100 or 0 respectively in a 3-parameter fit. Y is the % inhibition and X is the compound concentration.
Molecular Biology and virus production. […] The baculovirus from the expression plasmid WRN—BV08 was generated from transfection and amplification following the manufacturer's instructions.
Sf9 cells grown in SF900II media were infected with 1:200 WRN—BV08 P2 virus and incubated for protein expression for 72 h at 27° C. The WRN protein was purified using the following protocol. The cell pellets were thawed and resuspended in buffer A (50 mM Tris, pH 7.5, 500 mM NaCl, 1 mM TCEP, 10% Glycerol) supplemented with 0.5% CHAPS, 1 mM PMSF, 1 μg/ml Leupeptin, 1 μg/ml Pepstatin, and the Pierce Universal Nuclease and cocktail tablet. Cleared lysates were loaded onto a Ni Sepharose™ excel column and washed with buffer A and bound protein was eluted with buffer A supplemented with 300 mM imidazole. The eluted protein was dialyzed against buffer A and digested by His-tagged TEV (1:5 ratio) overnight at 4° C. ZnCl2 was added into the sample at final 15 μM before loading onto a second Ni Sepharose™ excel column. Untagged WRN protein was eluted from the column with buffer A supplemented with 20 mM imidazole, dialyzed overnight into buffer B (50 mM Tris, pH 7.5, 1 mM TCEP, 10% Glycerol) supplemented with 150 mM NaCl and loaded onto a Heparin column. Proteins were eluted with a step gradient of buffer B supplemented with 150 mM, 200 mM, 300 mM and 500 mM NaCl. WRN containing fractions were pooled and concentrated prior to loading on to size exclusion chromatography using a HiLoad 16/600 Superdex™ 200 pg column (GE Healthcare) in buffer C (20 mM HTEPES, pH 7.5, 250 mM NaCl, 0.25 mM TCEP, […]).
In the case of `CCc1c(N2CCN(C(=O)c3ncnc(C)c3O)C[C@@H]2C)c(=O)c2nc(N3CC[C@@H]4C[C@@H]43)cnc2n1CC(=O)Nc1ccc(C(F)(F)F)cc1Cl` (single isomer, unassigned) [I-193], the IC50 is at most 5 nM. Regarding `CCc1c(N2CCN(C(=O)c3ncnc(C)c3O)[C@H](C)[C@@H]2C)c(=O)c2nc(N(C)C)cnc2n1CC(=O)Nc1ccc(C(F)(F)F)cc1Cl` (single isomer, unassigned) [I-198, N-(2-chloro-4-(trifluoromethyl)phenyl)-2-(2-(dimethylamino)-6-ethyl-7-(4-(5-hydroxy-6-methylpyrimidine-4-carbonyl)-2,3-dimethylpiperazin-1-yl)-8-oxopyrido[2,3-b]pyrazin-5(8H)-yl)acetamide], the IC50 is 5 to 50 nM. On the same count and under the same terms, in the case of `CCc1c(N2C[C@H]3CC[C@@H]2CN3C(=O)c2ncnc(C)c2O)c(=O)c2nc(N(C)C)cnc2n1CC(=O)Nc1ccc(C(F)(F)F)cc1Cl` (single isomer, unassigned) [I-248, N-(2-chloro-4-(trifluoromethyl)phenyl)-2-(2-(dimethylamino)-6-ethyl-7-(5-(5-hydroxy-6-methylpyrimidine-4-carbonyl)-2,5-diazabicyclo[2.2.2]octan-2-yl)-8-oxopyrido[2,3-b]pyrazin-5(8H)-yl)acetamide] it was 50 to 100 nM; in that of `CCc1c(N2CCN(C(=O)c3ncnc(C)c3O)C3COCC32)c(=O)c2nc(N(C)C)cnc2n1CC(=O)Nc1ccc(C(F)(F)F)cc1Cl` (single isomer, unassigned) [I-295, N-(2-chloro-4-(trifluoromethyl)phenyl)-2-(2-(dimethylamino)-6-ethyl-7-(4-(5-hydroxy-6-methylpyrimidine-4-carbonyl)hexahydrofuro[3,4-b]pyrazin-1(2H)-yl)-8-oxopyrido[2,3-b]pyrazin-5(8H)-yl)acetamide], 5 to 50 nM; in that of `CCc1c(N2CCN(C(=O)c3ncnc(C)c3O)[C@@H](C)C2)c(=O)c2nc(N(C)C)cnc2n1CC(=O)Nc1ccc(C(F)(F)F)cc1Cl` [I-173, N-[2-chloro-4-(trifluoromethyl)phenyl]-2-[2-(dimethylamino)-6-ethyl-7-[(3S)-4-(5-hydroxy-6-methylpyrimidine-4-carbonyl)-3-methylpiperazin-1-yl]-8-oxo-5H,8H-pyrido[2,3-b]pyrazin-5-yl]acetamide], 5 to 50 nM. Still for that read-out and setting: the figure for `C#C[C@H]1CN(C(=O)c2ncnc(C)c2O)CCN1c1c(CC)n(CC(=O)Nc2ccc(C(F)(F)F)cc2Cl)c2ncc(N(C)C)nc2c1=O` [I-260, N-[2-chloro-4-(trifluoromethyl)phenyl]-2-[2-(dimethylamino)-6-ethyl-7-[(2S)-2-ethynyl-4-(5-hydroxy-6-methylpyrimidine-4-carbonyl)piperazin-1-yl]-8-oxo-5H,8H-pyrido[2,3-b]pyrazin-5-yl]acetamide] is 5 to 50 nM.

A further experiment deals with p21 induction in HCT116 cells. The experiment is described as follows: p21 induction in HCT116 cells. The class given is cell-based. The settings on record: Homo sapiens, HCT-116, 24 h, HCT116 cells, 24 h compound incubation; read-out: P21_EC50. The protocol: The colon carcinoma cell line HCT116 was obtained from ATCC and cultured in growth medium consisting of Mccoy's 5A Medium (Gibco 16600108) supplemented with 10% FBS (Transgene FS201-02) and 100 units/mL penicillin-streptomycin (Gibco 15140122) and maintained at 37° C. under 5% CO2. On the day of seeding, 2,000 cells in 30 μL of culture media were plated per well to Poly-D-Lysine 384 Well Black Clear Plates (Biocoat 356663) and incubated overnight at 37° C. under 5% CO2. The following day, compounds were serially diluted in DMSO for a total of 11 test concentrations. […] Next, 150 nL of diluted compound was added in duplicate to the assay plate, using an Echo 655 (Labcyte). The plate was centrifuged at 500 RPM for 1 min and then incubated at 37° C. under 5% CO2 for 24 h. After 24 h, medium was removed, and cells were fixed by adding 40 μL of 4% paraformaldehyde solution to each well and incubated for 20 min at room temperature. The plate was then washed 4 times with 100 μL per well of wash buffer (PBS with 0.1% Tween-20) using a microplate washer. Next, 30 μL of ice-cold methanol was added to each well and the plate was incubated at −20° C. for 10 min. The plate was washed 4 times with 100 μL per well of wash buffer by a microplate washer, then 30 μL per well of blocking buffer (Intercept PBS blocking buffer (LI-COR 927-70001) with 0.05% Tween-20) was added and the plate was incubated at room temperature with shaking for 2 h. Next, to each test well, 20 μL of primary antibody solution (p21 Waf1/CIP (12D1) RabbitmAb (Cell Signaling Technologies 2947) diluted 1:1000 and GAPDH (D4C6R) Mouse mAb (Cell Signaling Technologies 97166) diluted 1:2000 in blocking buffer) was added and the plate was placed at 4° C., overnight. The following day, the plate was washed 5 times with 100 μL per well of wash buffer using a microplate washer for 5 min. 20 μL per well of secondary antibody (IRDye 680CW Goat anti-Mouse IgG (H+L) (LI-COR 926-68070) diluted 1: 2000 in Blocking Buffer and IRDye 800CW Goat anti-Rabbit IgG (H+L) (LI-COR 926-32211) diluted 1: 2000 in Blocking Buffer) was then added and the plate was stored for 2 h in the dark at room temperature with shaking. The plate was then washed 4 times with 100 μL per well of wash buffer again using a microplate washer. Finally, the p21 signal and the GAPDH signal were quantified using a LI-COR Odyssey CLx Imager machine reading at 800 nm and 700 nm, respectively. Each plate contained DMSO control (low control) and an internal reference WRN inhibitor (high control) respectively. […] EC50 values for each compound were generated after non-linear regression curve fitting using commercially available software.
Consider `CCc1c(N2CCN(C(=O)c3ncnc(C)c3O)C3CCC32)c(=O)c2nc(N(C)C)cnc2n1CC(=O)Nc1ccc(C(F)(F)F)cc1Cl` (racemic) [I-34, rac-N-(2-chloro-4-(trifluoromethyl)phenyl)-2-(2-(dimethylamino)-6-ethyl-7-(5-(5-hydroxy-6-methylpyrimidine-4-carbonyl)-2,5-diazabicyclo[4.2.0]octan-2-yl)-8-oxopyrido[2,3-b]pyrazin-5(8H)-yl)acetamide], for which the EC50 was under 500 nM.

`CCc1c(N2CCN(C(=O)c3ncnc(C)c3O)[C@H]3CC[C@H]32)c(=O)c2nc(N(C)C)cnc2n1CC(=O)Nc1ccc(C(F)(F)F)cc1Cl` (racemic) [I-106, rac-N-(2-chloro-4-(trifluoromethyl)phenyl)-2-(2-(dimethylamino)-6-ethyl-7-(5-(5-hydroxy-6-methylpyrimidine-4-carbonyl)-2,5-diazabicyclo[4.2.0]octan-2-yl)-8-oxopyrido[2,3-b]pyrazin-5(8H)-yl)acetamide]: the EC50 lay within 500 to 2000 nM. Consider `CCc1c(N2CCN(C(=O)c3ncnc(C)c3O)[C@@H]3CC[C@H]32)c(=O)c2nc(N(C)C)cnc2n1CC(=O)Nc1ccc(C(F)(F)F)cc1Cl` (single isomer, unassigned) [I-39, N-(2-chloro-4-(trifluoromethyl)phenyl)-2-(2-(dimethylamino)-6-ethyl-7-(−5-(5-hydroxy-6-methylpyrimidine-4-carbonyl)-2,5-diazabicyclo[4.2.0]octan-2-yl)-8-oxopyrido[2,3-b]pyrazin-5(8H)-yl)acetamide], for which the EC50 was 2000 to 5000 nM.

With `CCc1c(N2CCN(C(=O)c3ncnc(C)c3O)[C@H]3CC[C@@H]32)c(=O)c2nc(N(C)C)cnc2n1CC(=O)Nc1ccc(C(F)(F)F)cc1Cl` (single isomer, unassigned) [I-40, N-(2-chloro-4-(trifluoromethyl)phenyl)-2-(2-(dimethylamino)-6-ethyl-7-(−5-(5-hydroxy-6-methylpyrimidine-4-carbonyl)-2,5-diazabicyclo[4.2.0]octan-2-yl)-8-oxopyrido[2,3-b]pyrazin-5(8H)-yl)acetamide], the EC50 was under 500 nM.

The experiment is the same for the next values; noted with them: Homo sapiens, HCT-116, 24 h, read-out: P21_EC50.
As for `[2H]C([2H])([2H])N(c1cnc2c(n1)c(=O)c(N1CCN(C(=O)c3ncnc(C)c3O)[C@H]3CC[C@@H]31)c(CC)n2CC(=O)Nc1ccc(C(F)(F)F)cc1Cl)C([2H])([2H])[2H]` [I-101, 2-(2-(bis(methyl-d3)amino)-6-ethyl-7-((1S,6S)-5-(5-hydroxy-6-methylpyrimidine-4-carbonyl)-2,5-diazabicyclo[4.2.0]octan-2-yl)-8-oxopyrido[2,3-b]pyrazin-5(8H)-yl)-N-(2-chloro-4-(trifluoromethyl)phenyl)acetamide], the EC50 was under 500 nM.
